Measurements reported in patent publication US8377974B2 (Millennium Pharmaceuticals, Inc., priority 2004, dated 2013).
pIC50: −log10 of the molar value.

These molecules were tested against T1, human plasma protein factor Xa (Homo sapiens, UniProt P00742) (assay: Factor Xa IC50 determination: cleavage of paranitroanilide substrate S-2765 in 96-well plates). Settings: fXa 1 nM, S-2765 100 μM, Tris buffered saline pH 7.4, room temperature.
T1 construct: measure proteolytic activity of the enzyme (factor Xa); purchased Haematologic Technologies (Essex Junction, Vt.); host or cells: human plasma
Assay type: biochemical
Summary of the method: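 Human plasma factor Xa (1 nM) preincubated 5 min at room temperature with inhibitor (0.01 nM–10 μM final) in Tris-buffered saline pH 7.4 with 5 mM CaCl2, 0.1% BSA, 5% DMSO. S-2765 at 100 μM final; hydrolysis at 405 nm over 2 min. IC50 from 4-parameter fit of initial velocities.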

T1 sequence (P00742 235-488 limits assumed): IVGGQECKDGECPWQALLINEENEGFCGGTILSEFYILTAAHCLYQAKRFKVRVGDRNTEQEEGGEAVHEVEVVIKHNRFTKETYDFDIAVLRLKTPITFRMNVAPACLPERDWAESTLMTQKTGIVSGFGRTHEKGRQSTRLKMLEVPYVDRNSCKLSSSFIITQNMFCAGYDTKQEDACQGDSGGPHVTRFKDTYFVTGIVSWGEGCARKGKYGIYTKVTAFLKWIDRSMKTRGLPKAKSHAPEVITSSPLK
T1 sequence (P00742 41-179 partner limits assumed): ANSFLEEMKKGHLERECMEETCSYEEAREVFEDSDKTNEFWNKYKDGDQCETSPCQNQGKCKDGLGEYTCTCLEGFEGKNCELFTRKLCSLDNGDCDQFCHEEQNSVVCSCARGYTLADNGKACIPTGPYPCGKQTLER

Row | pIC50 | SMILES
1 | 6.30 to 7.00 | COCCN(C)c1cc(C(=N)N2CCCCC2)ccc1C1=NOC(CNC(=O)c2ccc(Cl)s2)C1 (centres unmarked) [Example 89, 5-Chloro-thiophene-2-carboxylic acid (3-{4-(imino-piperidin-1-yl-methyl)-2-[(2-methoxy-ethyl)-methyl-amino]-phenyl}-4,5-dihydro-isoxazol-5-ylmethyl)-amide]
2 | 6.30 to 7.00 | CN(C)C(=N)c1ccc(C2=NOC(CNC(=O)c3ccc(Cl)s3)C2)c(N2CCCCCC2)c1 (centres unmarked) [Example 90, 5-Chloro-thiophene-2-carboxylic acid {3-[2-azepan-1-yl-4-(N,N-dimethyl-carbamimidoyl)-phenyl]-4,5-dihydro-isoxazol-5-ylmethyl}-amide]
3 | ≥ 7.00 | CN1CCN=C1c1ccc(C2=NOC(CNC(=O)c3ccc(Cl)s3)C2)c(N2CCCCCC2)c1 (centres unmarked) [Example 91, 5-Chloro-thiophene-2-carboxylic acid {3-[2-azepan-1-yl-4-(1-methyl-4,5-dihydro-1H-imidazol-2-yl)-phenyl]-4,5-dihydro-isoxazol-5-ylmethyl}-amide]
4 | ≥ 7.00 | N=C(c1ccc(C2=NOC(CNC(=O)c3ccc(Cl)s3)C2)c(N2CCCCCC2)c1)N1CCCC1 (centres unmarked) [Example 92, 5-Chloro-thiophene-2-carboxylic acid {3-[2-azepan-1-yl-4-(imino-pyrrolidin-1-yl-methyl)-phenyl]-4,5-dihydro-isoxazol-5-ylmethyl}-amide]
5 | ≥ 7.00 | N=C(c1ccc(C2=NOC(CNC(=O)c3ccc(Cl)s3)C2)c(N2CCCCCC2)c1)N1CCCCC1 (centres unmarked) [Example 93, 5-Chloro-thiophene-2-carboxylic acid {3-[2-azepan-1-yl-4-(imino-piperidin-1-yl-methyl)-phenyl]-4,5-dihydro-isoxazol-5-ylmethyl}-amide]
6 | ≥ 7.00 | CN(C)C(=N)c1ccc(-c2cc(CNC(=O)c3ccc(Cl)s3)on2)c(N(C)C)c1 [Example 94, 5-Chloro-thiophene-2-carboxylic acid {3-[2-dimethylamino-4-(N,N-dimethyl-carbamimidoyl)-phenyl]-isoxazol-5-ylmethyl}-amide]
7 | ≥ 7.00 | CN1CCN=C1c1ccc(-c2cc(CNC(=O)c3ccc(Cl)s3)on2)c(N(C)C)c1 [Example 95, 5-Chloro-thiophene-2-carboxylic acid {3-[2-dimethylamino-4-(1-methyl-4,5-dihydro-1H-imidazol-2-yl)-phenyl]-isoxazol-5-ylmethyl}-amide]
8 | ≥ 7.00 | CN(C)c1cc(C(=N)N2CCCC2)ccc1-c1cc(CNC(=O)c2ccc(Cl)s2)on1 [Example 96, 5-Chloro-thiophene-2-carboxylic acid {3-[2-dimethylamino-4-(imino-pyrrolidin-1-yl-methyl)-phenyl]-isoxazol-5-ylmethyl}-amide]
9 | ≥ 7.00 | CN(C)c1cc(C(=N)N2CCCCC2)ccc1-c1cc(CNC(=O)c2ccc(Cl)s2)on1 [Example 97, 5-Chloro-thiophene-2-carboxylic acid {3-[2-dimethylamino-4-(imino-piperidin-1-yl-methyl)-phenyl]-isoxazol-5-ylmethyl}-amide]
10 | ≥ 7.00 | CN(C)C(=N)c1ccc(-c2cc(CNC(=O)c3ccc(Cl)s3)on2)c(N2CCOCC2)c1 [Example 98, 5-Chloro-thiophene-2-carboxylic acid {3-[4-(N,N-dimethyl-carbamimidoyl)-2-morpholin-4-yl-phenyl]-isoxazol-5-ylmethyl}-amide]
11 | ≥ 7.00 | CN1CCN=C1c1ccc(-c2cc(CNC(=O)c3ccc(Cl)s3)on2)c(N2CCOCC2)c1 [Example 99, 5-Chloro-thiophene-2-carboxylic acid {3-[4-(1-methyl-4,5-dihydro-1H-imidazol-2-yl)-2-morpholin-4-yl-phenyl]-isoxazol-5-ylmethyl}-amide]
12 | ≥ 7.00 | N=C(c1ccc(-c2cc(CNC(=O)c3ccc(Cl)s3)on2)c(N2CCOCC2)c1)N1CCCC1 [Example 100, 5-Chloro-thiophene-2-carboxylic acid {3-[4-(imino-pyrrolidin-1-yl-methyl)-2-morpholin-4-yl-phenyl]-isoxazol-5-ylmethyl}-amide]
13 | ≥ 7.00 | N=C(c1ccc(-c2cc(CNC(=O)c3ccc(Cl)s3)on2)c(N2CCOCC2)c1)N1CCCCC1 [Example 101, 5-Chloro-thiophene-2-carboxylic acid {3-[4-(imino-piperidin-1-yl-methyl)-2-morpholin-4-yl-phenyl]-isoxazol-5-ylmethyl}-amide]
14 | ≥ 7.00 | COc1cc(C(=N)N(C)C)ccc1C1=NOC(CNC(=O)c2ccc(Cl)s2)C1 (centres unmarked) [Example 102, 5-Chloro-thiophene-2-carboxylic acid {3-[4-(N,N-dimethyl-carbamimidoyl)-2-methoxy-phenyl]-4,5-dihydro-isoxazol-5-ylmethyl}-amide]
15 | ≥ 7.00 | COc1cc(C2=NCCN2C)ccc1C1=NOC(CNC(=O)c2ccc(Cl)s2)C1 (centres unmarked) [Example 103, 5-Chloro-thiophene-2-carboxylic acid {3-[2-methoxy-4-(1-methyl-4,5-dihydro-1H-imidazol-2-yl)-phenyl]-4,5-dihydro-isoxazol-5-ylmethyl}-amide]
16 | ≥ 7.00 | COc1cc(C(=N)N2CCCC2)ccc1C1=NOC(CNC(=O)c2ccc(Cl)s2)C1 (centres unmarked) [Example 104, 5-Chloro-thiophene-2-carboxylic acid {3-[4-(imino-pyrrolidin-1-yl-methyl)-2-methoxy-phenyl]-4,5-dihydro-isoxazol-5-ylmethyl}-amide]
17 | ≥ 7.00 | COc1cc(C(=N)N2CCCCC2)ccc1C1=NOC(CNC(=O)c2ccc(Cl)s2)C1 (centres unmarked) [Example 105, 5-Chloro-thiophene-2-carboxylic acid {3-[4-(imino-piperidin-1-yl-methyl)-2-methoxy-phenyl]-4,5-dihydro-isoxazol-5-ylmethyl}-amide]
18 | ≥ 7.00 | CCOc1cc(C(=N)N(C)C)ccc1C1=NOC(CNC(=O)c2ccc(Cl)s2)C1 (centres unmarked) [Example 106, 5-Chloro-thiophene-2-carboxylic acid {3-[4-(N,N-dimethyl-carbamimidoyl)-2-ethoxy-phenyl]-4,5-dihydro-isoxazol-5-ylmethyl}-amide]
19 | ≥ 7.00 | CCOc1cc(C2=NCCN2C)ccc1C1=NOC(CNC(=O)c2ccc(Cl)s2)C1 (centres unmarked) [Example 107, 5-Chloro-thiophene-2-carboxylic acid {3-[2-ethoxy-4-(1-methyl-4,5-dihydro-1H-imidazol-2-yl)-phenyl]-4,5-dihydro-isoxazol-5-ylmethyl}-amide]
20 | ≥ 7.00 | CCOc1cc(C(=N)N2CCCC2)ccc1C1=NOC(CNC(=O)c2ccc(Cl)s2)C1 (centres unmarked) [Example 108, 5-Chloro-thiophene-2-carboxylic acid {3-[2-ethoxy-4-(imino-pyrrolidin-1-yl-methyl)-phenyl]-4,5-dihydro-isoxazol-5-ylmethyl}-amide]
21 | ≥ 7.00 | CC(C)Oc1cc(C(=N)N(C)C)ccc1C1=NOC(CNC(=O)c2ccc(Cl)s2)C1 (centres unmarked) [Example 109, 5-Chloro-thiophene-2-carboxylic acid {3-[4-(N,N-dimethyl-carbamimidoyl)-2-isopropoxy-phenyl]-4,5-dihydro-isoxazol-5-ylmethyl}-amide]
22 | ≥ 7.00 | CC(C)Oc1cc(C2=NCCN2C)ccc1C1=NOC(CNC(=O)c2ccc(Cl)s2)C1 (centres unmarked) [Example 110, 5-Chloro-thiophene-2-carboxylic acid {3-[2-isopropoxy-4-(1-methyl-4,5-dihydro-1H-imidazol-2-yl)-phenyl]-4,5-dihydro-isoxazol-5-ylmethyl}-amide]
23 | ≥ 7.00 | CC(C)Oc1cc(C(=N)N2CCCC2)ccc1C1=NOC(CNC(=O)c2ccc(Cl)s2)C1 (centres unmarked) [Example 111, 5-Chloro-thiophene-2-carboxylic acid {3-[4-(imino-pyrrolidin-1-yl-methyl)-2-isopropoxy-phenyl]-4,5-dihydro-isoxazol-5-ylmethyl}-amide]
24 | ≥ 7.00 | CN(C)C(=N)c1ccc(C2=NOC(CNC(=O)c3ccc(Cl)s3)C2)c(OC2CCCC2)c1 (centres unmarked) [Example 112, 5-Chloro-thiophene-2-carboxylic acid {3-[2-cyclopentyloxy-4-(N,N-dimethyl-carbamimidoyl)-phenyl]-4,5-dihydro-isoxazol-5-ylmethyl}-amide]
25 | ≥ 7.00 | CN1CCN=C1c1ccc(C2=NOC(CNC(=O)c3ccc(Cl)s3)C2)c(OC2CCCC2)c1 (centres unmarked) [Example 113, 5-Chloro-thiophene-2-carboxylic acid {3-[2-cyclopentyloxy-4-(1-methyl-4,5-dihydro-1H-imidazol-2-yl)-phenyl]-4,5-dihydro-isoxazol-5-ylmethyl}-amide]
26 | ≥ 7.00 | N=C(c1ccc(C2=NOC(CNC(=O)c3ccc(Cl)s3)C2)c(OC2CCCC2)c1)N1CCCC1 (centres unmarked) [Example 114, 5-Chloro-thiophene-2-carboxylic acid {3-[2-cyclopentyloxy-4-(imino-pyrrolidin-1-yl-methyl)-phenyl]-4,5-dihydro-isoxazol-5-ylmethyl}-amide]
27 | ≥ 7.00 | CN(C)C(=N)c1ccc(C2=NOC(CNC(=O)c3ccc(Cl)s3)C2)c(OC2CCCCC2)c1 (centres unmarked) [Example 115, 5-Chloro-thiophene-2-carboxylic acid {3-[2-cyclohexyloxy-4-(N,N-dimethyl-carbamimidoyl)-phenyl]-4,5-dihydro-isoxazol-5-ylmethyl}-amide]
28 | ≥ 7.00 | CN1CCN=C1c1ccc(C2=NOC(CNC(=O)c3ccc(Cl)s3)C2)c(OC2CCCCC2)c1 (centres unmarked) [Example 116, 5-Chloro-thiophene-2-carboxylic acid {3-[2-cyclohexyloxy-4-(1-methyl-4,5-dihydro-1H-imidazol-2-yl)-phenyl]-4,5-dihydro-isoxazol-5-ylmethyl}-amide]
29 | ≥ 7.00 | N=C(c1ccc(C2=NOC(CNC(=O)c3ccc(Cl)s3)C2)c(OC2CCCCC2)c1)N1CCCC1 (centres unmarked) [Example 117, 5-Chloro-thiophene-2-carboxylic acid {3-[2-cyclohexyloxy-4-(imino-pyrrolidin-1-yl-methyl)-phenyl]-4,5-dihydro-isoxazol-5-ylmethyl}-amide]
